Results as given in ChEMBL document CHEMBL1157539, “Thousands of chemical starting points for antimalarial lead identification” (Nature, 2010).

test system: Plasmodium falciparum; test: GSK_TCMDC: Inhibition of Plasmodium falciparum 3D7 in whole erythrocytes, using parasite LDH activity as an index of growth.; type: functional, organism-based; details: not given

| Structure (SMILES) | XC50 [nM] |
| --- | --- |
| O=C(/C=C/c1ccc(Cl)cc1)NC1CCC(CN2CCC(c3c[nH]c4ccccc34)CC2)CC1 (configuration not stated) | 800 |

same assay, conditions: Plasmodium falciparum, 3D7

| Structure (SMILES) | XC50 [nM] |
| --- | --- |
| CC(=O)c1cc(N2CCCC2)ccc1N | 15.5 |
| Cc1cc(N2CCNCC2)c2cc(NC(=O)Nc3ccc(Cl)c(Cl)c3)ccc2n1 | 313 |
| Oc1ccccc1CNCC(O)c1cc(C(F)(F)F)cc(C(F)(F)F)c1 (configuration not stated) | 184 |
| Cc1cc(CN2CCC(Nc3ncc(-c4ccsc4)c4nc(C(F)(F)F)ccc34)CC2)no1 | 1100 |
| COc1ccc(Nc2nc(N/N=C/c3ccc(O)cc3)nc(Nc3ccc([N+](=O)[O-])cc3)n2)cc1 | 1120 |
| COc1cc2nc(N3CCC(CCCC4CCNCC4)CC3)nc(NCc3ccccn3)c2cc1OC | 757 |
| N=C(N)NN=CC(=O)Nc1ccc(Cl)c(C(F)(F)F)c1 | 892 |
| COc1ccc2nccc(NCC3(O)CCN(CCc4ccc5c(c4)OCCO5)CC3)c2n1 | 597 |
| CCCCN(CCCC)CCCN(CCCN(CCCC)CCCC)c1cc(C)nc(Nc2ccc(Cl)cc2)n1 | 370 |
| O=c1ccc2ccc(F)c3c2n1CC3CN1CCC(NCc2cccc(-c3ccccc3F)c2)CC1 (configuration not stated) | 1100 |
| CN1CCCC1CCNC(=O)[C@H](CC1CCCCC1)NC(=O)c1ccc(O)c(-c2ccc(Cl)c(Cl)c2)c1 (some centres not stated) | 736 |
| Cc1noc(=O)c2ccc(NC(=O)C(O)(CSc3ccccc3)CC(C)C)cc12 (configuration not stated) | 722 |
| CCc1cc(NCc2ccncc2)nc(Nc2ccc(F)cc2)n1 | 1330 |
| CN(C)CCNCc1ccc(-c2ccc(-c3nc4cc(F)ccc4[nH]3)cc2)cc1 | 474 |
| Cn1nccc1C(=O)NCCNCc1cccc(-c2ccc(-c3nc4cc(C(F)(F)F)ccc4[nH]3)cc2)c1 | 122 |
| COc1ccc2c(c1)OC(C)(C)CC2=NOS(=O)(=O)c1ccc(C)cc1 | 208 |
| c1ccc2c(NCCCCCCCCNc3ccnc4ccccc34)ccnc2c1 | 155 |
| Cc1cccc2nc(-c3ccc(-c4cccc(C(=O)NCCc5cn(C)cn5)c4)s3)[nH]c12 | 877 |
| COc1cc(N(Cc2ccccc2C)S(=O)(=O)Cc2ccccc2[N+](=O)[O-])c(OC)cc1Cl | 1010 |
| CCCO[C@H](C(=O)OC)[C@@H](CC1Cc2ccccc2C1)C(=O)NCCC1=CCCCC1 | 970 |
| Cc1cc(N)nc2ccc(-c3ccc(CN)cc3)cc12 | 621 |
| O=C(Nc1ccc(S(=O)(=O)N2CCCCC2)cc1)c1cc(-c2cc(Cl)ccc2O)n[nH]1 | 811 |
| CCc1ccc(CN2CCC(NC(=O)c3ccc(-c4ccccc4F)s3)CC2)cc1 | 1490 |
| CC(C)c1ccc(CN2CCC(NC(=O)c3ccc(-c4cccc(Cl)c4)s3)CC2)cc1 | 1430 |

| Structure (SMILES) | XC50 [nM] |
| --- | --- |
| O=C(Nc1ccc(Cn2ncc(N3CCCNCC3)c(Cl)c2=O)cc1)Nc1ccc(OCc2ccccc2)cc1 | 822 |
| FC(F)(F)c1cccc(N=C(S)NN=Cc2ccccn2)c1 | 346 |
| Nc1nc2c(cnn2CCCCCCCP(=O)(O)O)c(=O)[nH]1 | 469 |
| N=C(N)NN=Cc1c[nH]c2ccc(-c3ccccc3)cc12 | 528 |
| O=C(N[C@H]1CCN(Cc2ccc(OCCN3CCCC3)c3ccccc23)C1)c1ccc(Cl)c(Cl)c1 | 746 |
| COc1ccc2ccc(F)c(CC(=O)N3CCOC(CNCc4cccc(-c5ccc(F)cc5)n4)C3)c2n1 (configuration not stated) | 1010 |
| CCCCNc1ccc(C(=O)NC2CCN(C[C@H](O)c3ccnc4ccc(OC)cc34)CC2)cc1 | 442 |
| COc1ccc(C2CC(c3cccs3)=NN2C(=O)c2ccccc2)cc1OC (configuration not stated) | 661 |
| O=C(C=Cc1ccc(Cl)c(Cl)c1)NCCCCCN1CCCC(CCCNC(=O)c2sc3ccccc3c2Cl)C1 (configuration not stated) | 1030 |
| Cc1ccc(C(C)C)c(Oc2cnc(NC(CO)c3ccccc3)nc2N)c1 (configuration not stated) | 962 |
| O=C(C=Cc1ccc(Cl)c(Cl)c1)NCCCCCN1CCCC(CCCNC(=O)/C=C/c2ccccc2)C1 (configuration not stated) | 593 |
| O=C(Nc1ccc(-c2ccccc2)c(OCCN2CCNCC2)c1)c1ccc(-c2ccc(Cl)cc2)cc1 | 779 |
| CC(C)(C)N1CCC(N(Cc2ccc(-c3ccc(C(F)(F)F)cc3)cc2)C(=O)Cn2c(CCc3cccc(F)c3F)cc(=O)c3ccccc32)CC1 | 789 |
| CC(C)(C)C(=O)Nc1c(-c2cc(=O)oc3cc4c(cc23)CCC4)oc2ccccc12 | 1260 |
| CC(C)NCc1cccc(-c2ccc(NC(=O)c3ccc(C#N)cc3)cc2)c1 | 825 |
| COc1cc(C(=O)N2COCC(CCCN3CCC(N4CCCC4)CC3)(c3ccc(Cl)c(Cl)c3)C2)cc(OC)c1OC (configuration not stated) | 785 |
| O=C(N[C@@H](Cc1ccccc1)[C@H](O)CNCCC(F)(F)F)c1cccc(OCC2CC2)c1 | 616 |
| COc1ccc2ncc(F)c(CCN3CC[C@@H](CNCc4cc5c(cn4)OCS5)C3)c2n1 | 1160 |
| CCCCN(CCCC)CC(O)c1cc(-c2ccc(Cl)cc2)nc2c(Cl)cc(Cl)cc12 (configuration not stated) | 26.3 |
| Cc1cccc2nc(-c3ccc(-c4cccc(NC(=O)NCc5ccc(F)cc5)c4)cc3)[nH]c12 | 146 |
| CC(C)CN(C)c1ncnc2c1nc(-c1cncc(C#N)c1)n2CCNCc1ccccc1 | 1360 |
| Cn1c(N)cc(-c2ccc(Br)cc2)c2c(=O)nc(N)nc1-2 | 1130 |
| O=C(NC1CCC(CCN2CCc3ccc(-c4cnccn4)cc3CC2)CC1)c1cccc(-n2cccn2)c1 (configuration not stated) | 899 |
| COc1cc(NC(=O)/C=C/c2cc3ccccc3n2C)ccc1OCCN(C(C)C)C(C)C | 387 |

| Structure (SMILES) | XC50 [nM] |
| --- | --- |
| Cc1ccc(Nc2nnc(SCC(=O)Nc3ccc(CN4CCCC4)cc3)s2)cc1 | 1210 |
| NC1CCN(c2nc(NCCCc3ccc(O)cc3)nc(NCc3ccccc3-c3ccccc3)n2)CC1 | 678 |
| COc1cc2c(cc1OC)CN(c1cc(N)c3cc(OC)c(OC)cc3n1)CC2 | 552 |
| CNCc1ccc(CN(C)c2nc(N)c3cc(OC)c(OC)cc3n2)cc1 | 1030 |
| Cc1ccc(NC(=O)Nc2ccc(Cl)cc2)cc1-c1ccc(C(=O)Nc2ccncc2)cc1 | 534 |
| CN(C)Cc1ccc(-c2ccc(NC(=O)c3ccc4c(=O)n(Cc5ccccc5)cnc4c3)cc2)cc1 | 647 |
| Cc1nc(C)c(CC(=O)Nc2ccc(-c3cccc(-c4nc5cc(C(F)(F)F)ccc5[nH]4)c3)cc2)s1 | 925 |
| CC(C)(C)c1ccc2nccc(Nc3cccc(O)c3)c2c1 | 973 |
| COC(=O)C(=C(C)C)N1C(=O)[C@@H](NC(=O)OCc2ccccc2)[C@H]1SS[C@@H]1[C@H](NC(=O)OCc2ccccc2)C(=O)N1C(C(=O)OC)=C(C)C | 434 |
| O=C(Nc1ccc(N2CCCN(Cc3cccc(F)c3)CC2)cc1)c1cccs1 | 546 |
| CC(C)c1ncc(-c2ccncc2)c(C2CCC(CNC(=O)c3ccncc3)CC2)n1 (configuration not stated) | 1350 |
| O=C(Nc1ccc(Oc2ccccc2)cc1)N[C@@H](Cc1ccc(O)cc1)C(=O)NC1CCN(Cc2ccc(O)c([N+](=O)[O-])c2)C1 (some centres not stated) | 1510 |
| COCCNCc1cccc(-c2ccc(CN(C(=O)NC3CCCCC3)C3CCN(Cc4ccccc4)CC3)cc2)c1 | 759 |
| CCCCNCc1ccc(-c2nc(CN(C(=O)Nc3cc([N+](=O)[O-])ccc3F)C3Cc4ccccc4C3)cs2)cc1 | 1100 |
| Cc1ccc(NC(=O)c2ccc3ncccc3c2)cc1OC1CCN(Cc2ccco2)C1 (configuration not stated) | 1250 |
| CN(C)CCCNCc1ccc(-c2ccc(C(F)(F)F)cc2)cc1 | 873 |
| CCOc1ccc(Br)cc1/C=C/C(=O)Nc1ccc2c(c1)C1CCC2N1C (configuration not stated) | 1050 |
| COc1ccc(CCNCC(O)c2cccc(Br)c2)c(Cl)c1OC (configuration not stated) | 1040 |
| O=C(CNC1=NCCN1)Nc1ccc(NC(=O)Nc2ccc(NC(=O)CNC3=NCCN3)cc2)cc1 | 781 |
| O=C(COc1ccccc1)NC1CCN(c2ccnc3cc(Cl)ccc23)C1 (configuration not stated) | 698 |
| CCCNCc1ccc(-c2ccc(CN(C(=O)c3nn(-c4ccccc4)nc3C)C(C)CN(C)C)cc2)nc1 (configuration not stated) | 923 |
| CCN(CC)CCNc1ccnc2[nH]c3ccc(I)cc3c12 | 230 |
| O=C(/C=C/c1ccc(Cl)cc1)NC1CCC(CN2CCC(c3c[nH]c4ccccc34)CC2)CC1 (configuration not stated) | 727 |
| Cc1cc(=O)c(-c2ccc(Oc3cccc(OC(F)(F)F)c3)cc2)c(C)[nH]1 | 202 |

| Structure (SMILES) | XC50 [nM] |
| --- | --- |
| CN(CCCCCN1CCC(NC(=O)Nc2ccc(Oc3ccccc3)cc2)C1)C(=O)/C=C/c1ccc(Cl)c(Cl)c1 (configuration not stated) | 421 |
| Cc1ccc(NC(=O)c2cccc(N3CCN(c4ccncc4)CC3)c2)cc1F | 1300 |
| C=CCc1c(C(=O)NCC23CC4CC(CC(C4)C2)C3)nc2ccccc2c1O | 1030 |
| CN(C)c1ccc(N2C(N)=NC(N)=NC23CCCC3)cc1 | 935 |
| COCCn1c(SC(C)C(=O)Nc2cc(C(F)(F)F)ccc2Cl)nc2ccccc2c1=O (configuration not stated) | 629 |
| CN(C)C(CNC(=O)c1cc(-c2ccncc2)c(-c2ccc(Cl)c(O)c2)o1)c1ccccc1 (configuration not stated) | 843 |
| COc1ccc2ccccc2c1CCCCN1CCN(CC(c2ccc(F)cc2)N2CCC2)CC1 (configuration not stated) | 759 |
| CCC(CC)n1c(C)cc2c3c(N)nc(N)nc3ccc21 | 3.2 |
| CCCn1c(=N)c(C(=O)NCCc2ccccc2)cc2c(=O)n3cccc(C)c3nc21 | 1120 |
| C=CCOC(=O)O[C@@H]1[C@@H](OC(=O)OCC=C)[C@@H](OC)O[C@H](COC(c2ccccc2)(c2ccccc2)c2ccccc2)[C@H]1OC(=O)OCC=C | 887 |
| CCCC1(NC[C@@H](O)[C@H](Cc2ccccc2)NC(=O)c2cc(NCC)cc(N3CCCCS3(=O)=O)c2)CCCCC1 | 247 |
| Clc1ccc(CNc2ccnc(NCc3ccc4c(c3)OCCCO4)n2)c(Cl)c1 | 994 |
| CCOc1c(N2CCN(CCCCNC(=O)c3ccc(NC(=O)c4ccc(Cl)cc4)cc3)CC2)ccc2ccccc12 | 684 |
| CC(C)(CNC(=O)C1CCN(CCOc2ccc(F)c(F)c2)CC1)c1nc(-c2ccc(Cl)c(O)c2)c(-c2ccncc2)[nH]1 | 316 |
| CC(CN1CCN(C)CC1)C(=O)Nc1ccc(-c2cccc(-c3nc4cc(C(F)(F)F)ccc4[nH]3)c2)cc1 (configuration not stated) | 403 |
| CCNc1cc(C(=O)N[C@@H](Cc2ccccc2)[C@H](O)CNCCc2cccc(C(F)(F)F)c2)cc(N2CCCC2=O)c1 | 879 |
| O=C(/C=C/c1ccc(Cl)c(Cl)c1)NCCCCCN1CCCC(C(=O)Nc2ccc(Cl)cc2)C1 (configuration not stated) | 851 |
| CCN(CCCN1CCCCC1)c1nc(C)cc(Nc2ccc(Cl)cc2)n1 | 837 |
| NCc1cccc(-c2ccc(CNC3CCN(Cc4ccccc4)CC3)cc2)c1 | 1700 |
| N#Cc1ccc(-c2ccc(C(=O)NCCCCN3CCC(c4ccc5c(c4OCc4ccccn4)CCCC5)CC3)cc2)cc1 | 824 |
| COc1ccc(-n2nc(C(=O)NCCC3=CCCCC3)c3ccccc3c2=O)cc1 | 682 |
| Oc1cc2c(cc1CN1CCN(Cc3cccs3)CC1)CCC2 | 839 |
| CC(C)CC(=O)N(Cc1ccc(-c2ccc(CNC3Cc4ccccc4C3)cc2)cc1)C1CCNCC1 | 1170 |
| CCN1CCN(CCNc2c3ccccc3nc3ccccc23)CC1 | 1020 |
